Literature values as cited in patent publication US20240264148A1, “SYSTEM AND METHOD OF IDENTIFYING BIOMARKERS FOR CHEMO-RESISTANCE IN CANCER AND IDENTIFYING TARGETS THAT CAN REVERSE CHEMO-RESISTANCE IN CANCER” (OROC, priority 2019, published 2024).

Tested on: recurrent ovarian cancer
Details: patients

Structure (SMILES): Cc1nc(Nc2ncc(C(=O)Nc3c(C)cccc3Cl)s2)cc(N2CCN(CCO)CC2)n1 [Dasatinib]
- safety and tolerability: safe to use as a drug with good tolerability
